We go through six molecules from patent US7884131B2, “Oxylipins from long chain polyunsaturated fatty acids and methods of making and using the same” (Martek Biosciences, Corporation, priority 2004, dated 2011).

Entries after “also recorded” stand apart in the source; their conditions may differ.

The test system of assay [1] is inflammatory cytokine production. In words: Consumption of LCPUFA oils: inflammatory cytokine production. It is filed as in vivo. The note with it: consumption of the oil; DHA dose approximately three times higher in DHA alone than in the DHA+DPAn-6 oil.
Another assay deals with T1, Soybean 15-lipoxygenase (Glycine max, UniProt P08170).
T1 construct: purchased Sigma-Aldrich
T1 sequence (P08170 1-839): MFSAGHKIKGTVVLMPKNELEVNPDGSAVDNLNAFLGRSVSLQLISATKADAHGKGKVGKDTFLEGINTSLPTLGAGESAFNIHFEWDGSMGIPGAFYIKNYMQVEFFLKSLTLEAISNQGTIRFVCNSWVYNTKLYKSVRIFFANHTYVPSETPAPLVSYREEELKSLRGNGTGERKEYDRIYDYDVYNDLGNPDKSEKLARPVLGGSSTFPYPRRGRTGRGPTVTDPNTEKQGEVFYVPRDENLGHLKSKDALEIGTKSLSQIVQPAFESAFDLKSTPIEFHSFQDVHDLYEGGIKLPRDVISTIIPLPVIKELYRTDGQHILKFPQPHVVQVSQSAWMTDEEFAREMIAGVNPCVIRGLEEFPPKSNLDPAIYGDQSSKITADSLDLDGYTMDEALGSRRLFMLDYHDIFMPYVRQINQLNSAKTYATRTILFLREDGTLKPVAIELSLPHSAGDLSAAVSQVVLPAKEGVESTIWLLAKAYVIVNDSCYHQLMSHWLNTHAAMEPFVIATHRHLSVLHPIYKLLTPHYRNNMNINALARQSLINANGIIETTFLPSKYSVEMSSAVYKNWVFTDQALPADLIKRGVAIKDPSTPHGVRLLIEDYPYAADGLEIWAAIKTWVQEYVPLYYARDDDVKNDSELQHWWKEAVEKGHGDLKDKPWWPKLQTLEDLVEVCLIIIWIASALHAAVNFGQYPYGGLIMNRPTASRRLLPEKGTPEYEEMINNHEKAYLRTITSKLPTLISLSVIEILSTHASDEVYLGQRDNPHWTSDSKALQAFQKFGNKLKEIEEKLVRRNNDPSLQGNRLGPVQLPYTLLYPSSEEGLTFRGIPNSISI
In words: 15-lipoxygenase reaction with LCPUFA substrates. The note with it: 100 μM fatty acid, 4 μg/ml enzyme, 0.05M sodium borate buffer pH 9.0, 0° C., absorbance at 238 nm. It is filed as biochemical. As for the experimental part: Soybean 15-lipoxygenase (Sigma-Aldrich, St. Louis, Mo.) at a final concentration of 4 μg/ml was mixed into 100 μM solutions of DHA, DPAn-6, or DPAn-3 (NuChek Prep, Elysian, Minn.) in 0.05M sodium borate buffer, pH 9.0, and the reaction mixtures were incubated at 0° C. Appearance of the mono-hydroxy conjugated diene derivatives of the fatty acids was monitored through absorbance at 238 nm. Conjugated diene products were quantified using an extinction coefficient of 28,000 M^−1cm^−1 (Shimizu et al; Methods in Enzymology, 1990 Vol 187, 296-306). As shown in Example. 1, 100% of the DPAn-6 was efficiently converted to its conjugated diene derivative under these conditions, whereas about 85% of DPAn-3 and 50% of DHA were converted to their respective conjugated diene (mono-hydroxy) derivative by the 15-lipoxygenase. No appreciable accumulation of the dihydroxy derivatives occurred under these reaction conditions.

The subject of another assay is IL-1β. In words: Mouse dorsal air pouch model: IL-1β in exudates. It is filed as in vivo, C57/B16 mice. The note with it: 100 ng docosanoid intra-pouch, 100 ng TNFα, 4 hours after TNFα, ELISA. The text has this: (§1) Pure 17R-hydroxy DHA (17R-HDHA) was purchased from Caymen Chemicals (Ann Arbor, Mich.). Docosanoids 17-hydroxy-DPAn-6 (17-HDPAn-6) and 10,17-dihydroxyDPAn-6 (10,17-HDPAn-6) were synthesized biogenically from DPAn-6 (NuChek Prep, Elysian, Minn.) using soybean 15-lipoxygenase (Sigma-Aldrich) and purified by HPLC as described in Example 2. Organic solvents were evaporated and the compounds were re-dissolved in phosphate buffered saline (PBS), filter sterilized and concentrations were adjusted to 1000 ng/ml using molar extinction coefficients of 28,000 and 40,000 M^−1cm^−1 for the mono- and dihydroxy docosanoids, respectively. Female C57/B16 mice (n=10 mice per group) were injected with sterile air subcutaneously in the back to initiate dorsal air pouches. Six days later, 0.9 ml sterile PBS followed by 100 ng docosanoid in 0.1 ml PBS or PBS alone were administered by intra-pouch injection. This injection was followed within 5 min by intra-pouch injection of 100 ng of mouse recombinant TNFα (Peprotech, Inc, NJ, USA) in 0.1 ml PBS. Control animals received no TNFα. As a positive control, 2 mg/kg indomethacin (Calbiochem, San Diego, Calif.) was administered intraperitoneally 30 min prior to administration of TNFα. Four hours after TNFα administration, air pouch exudates were removed and cells were stained with Turk's solution and counted. […]

In assay [2] the test system is human T lymphocytes stimulated with anti-CD3/anti-CD28 antibodies. Kind of assay: TNFα secretion by human T lymphocytes. It is filed as cell-based. The note with it: 6 hrs pretreatment, 41 hrs on anti-CD3/anti-CD28 coated wells, ELISA; difference at 10 nM p=0.037. As to the method: FIG. 22A: Effect of Docosanoids on TNFα Secretion by Human T Lymphocytes. The assay was performed essentially as described in Ariel et al, 2005. Briefly, human peripheral blood mononuclear cells were isolated from venous blood by Ficoll-Paque™ Plus (Amersham biosciences) gradient. T lymphocytes were isolated using a human T cell enrichment column (R&D Systems) per manufacturer's instructions. Purified T cells were treated with 10,17-dihydroxy DPAn-6 or 10,17-dihydroxy DHA or vehicle (0.05% ethanol) in RPMI-1640 media containing 10% heat inactivated fetal bovine serum for 6 hrs at 37° C. Lymphocytes (200,000 cells in 200 μl media per well) were then transferred to 96-well plates coated with both anti-CD3 antibody and anti-CD28 antibody (100 μl of 2 μg/ml of each antibody overnight to coat wells) and incubated for 41 hrs. TNFα concentrations were determined in cell supernatants by ELISA (R&D Systems). Group means±stdev (n=4) were compared by Student's t test. *p<0.05 and **p<0.01 compared to control; # indicates statistical difference (p=0.037) between the groups treated with 10,17-dihydroxy DPAn-6 and 10,17-dihydroxy DHA at the 10 nM concentrations.
In general terms: ELISA stands for enzyme-linked immunosorbent assay.

The subject of assay [3] is macrophage chemotactic protein-1 (MCP-1). In words: Mouse dorsal air pouch model: MCP-1 in exudates. It is filed as in vivo, C57/B16 mice. The note with it: 100 ng docosanoid intra-pouch, 100 ng TNFα, 4 hours after TNFα, ELISA.
Description: as §1

Assay [4] deals with total cell migration into air pouch exudates. In words: Mouse dorsal air pouch model: total cell migration. It is filed as in vivo, C57/B16 mice. The note with it: 100 ng docosanoid intra-pouch, 100 ng TNFα, 4 hours after TNFα.
Description: as §1

In assay [5] the test system is Carrageenan-induced hind paw edema. In words: Rat paw edema study with LCPUFA-containing diets. It is filed as in vivo, Sprague Dawley rats. Particulars: diets fed 4 weeks, 1% carrageenan, 3 hours post-injection, Day 28. As for the experimental part:
Adult, male, Sprague Dawley rats (n=10/treatment group) were fed modified AIN-76 diets formulated to include 1.2% DHA, 1.2% DHA+0.44% DPAn-6, or 1.2% DHA+0.46% arachidonic acid (ARA) for 4 weeks. Carrageenan (1%) was used to induce hind paw edema on Day 14 (left paw) and Day 28 (right paw) of feeding. Edema was measured plethysmographically using water displacement 3 hours post-injection. Similar results were obtained on day 14. *p≦0.05.

Assay [6] has as its system Inflammatory eicosanoid secretion. Kind of assay: Consumption of LCPUFA oils: inflammatory eicosanoid secretion. It is filed as in vivo. Particulars: compared to DHA alone.

Regarding `CC/C=C\C/C=C\C/C=C\C/C=C\C/C=C\C/C=C\CCC(=O)O` [DHA, docosahexaenoic acid (C22:6n-3), reference compound], the “reduction in inflammatory cytokine production” value in assay [1] is 13-29%. In addition, the “converted to conjugated diene (mono-hydroxy) derivative by the 15-lipoxygenase” value (shortened to “converted to conjugated diene”) on Soybean 15-lipoxygenase is recorded as about 50%.

As to `CC/C=C\C/C=C\C/C=C\C/C=C\C/C=C\CCCCCC(=O)O` [DPAn-3, docosapentaenoic acid (C22:5n-3)], the “converted to conjugated diene” value on Soybean 15-lipoxygenase is given as “about 85%”.

Turning to 10,17-dihydroxy DPAn-6, the “secretion of IL-1β in air pouch exudates” value with IL-1β was “significant reductions; also recorded: significantly larger than with that produced by either the DHA oxylipin derivative or indomethacin”. In addition, in assay [2], the “reducing TNFα secretion by T lymphocytes” value was “more potent than the DHA analog (10,17,dihydroxy DHA)”. In assay [3], the “secretion of MCP-1 in air pouch exudates” value was “significant reductions; also recorded: larger inhibition of MCP-1 secretion than indomethacin”. The “total number of cells in the air pouch (cell infiltration)” value in assay [4] is “significant reductions”.

As for `CCCCC/C=C\C/C=C\C/C=C\C/C=C\CCCC(=O)O` [ARA, arachidonic acid (C20:4n-6)], the “reduction in edema volume” value in assay [5] was “reversed the anti-inflammatory activity of DHA”.

`CCCCCC(O)/C=C/C=C\C/C=C\C/C=C\C/C=C\CCC(=O)O` (stereo not shown) [17-hydroxy DPAn-6]: the “secretion of IL-1β in air pouch exudates” value in the assay with IL-1β was “significant reductions”. In assay [3], the “secretion of MCP-1 in air pouch exudates” value is reported as “significant reductions; also recorded: larger inhibition of MCP-1 secretion than indomethacin”. Besides, the “total number of cells in the air pouch (cell infiltration)” value in assay [4] is “significant reductions; also recorded: more potent than both 17R-hydroxy DHA and indomethacin”.

Take “docosapentaenoic acid (C22:5n-6) [DPAn-6]”: in assay [6], the Inflammatory eicosanoid secretion result is given as “significantly reduced”. Moreover, the “converted to conjugated diene” value on Soybean 15-lipoxygenase is listed as 100%.
